Test [1] has as its system Tissue Factor Pathway Inhibitor (TFPI). The experiment in a line: IC50 ELISA | Mean IC50 [nM]. Background: ELISA stands for enzyme-linked immunosorbent assay.
Test [2] shares this test system. The experiment in a line: IC50 ELISA | Mean IC50 [nM]. The source holds these as a separate data set.
The test system is the same in test [3]. The experiment in a line: IC50 ELISA | IC50 [nM]. An excerpt: Table printed on a drawing sheet, FIGURE 78N
(§1) Head of the field: IC50 ELISA | IC50 [nM]

Test [4] has the same test system. Put plainly: IC50 ELISA | IC50 [nM].
From the text: Table printed on a drawing sheet, FIGURE 78S
as §1
The source holds these as a separate data set.

Test [5] has the same test system. Put plainly: IC50 ELISA | IC50 [nM].
From the text: Table printed on a drawing sheet, FIGURE 78U
as §1
This is another data set of the same source.

The test system is the same in test [6]. Put plainly: IC50 ELISA | Mean IC50 [nM]. An excerpt:
Table printed on a drawing sheet, FIGURE 78M
Head of the field: IC50 ELISA | Mean IC50 [nM]
The source holds these as a separate data set.

Test [7] has the same test system. Put plainly: IC50 ELISA | Mean IC50 [nM]. This is another data set of the same source.

Where a SMILES comes first, the peptide text is derived from it. Bridges are numbered along the chain shown (N, C = ends). [ ]: non-standard residue; d: D form. Tle = CC(C)(C)[C@H](N)C(=O)O; hCys = N[C@@H](CCS)C(=O)O; Aib = CC(C)(N)C(=O)O Where only a bound is given, the exact number is not on record here.

This is an account of results in patent US10800816B2 (Baxalta GmbH, priority 2012, dated 2020).

Usually IC50 stands for the concentration needed to halve the response being measured. Higher therefore signals a need for much substance. In test [1], `CC(=O)N[C@@H](Cc1ccccc1)C(=O)N[C@@H](CCC(N)=O)C(=O)N[C@@H](CO)C(=O)N[C@@H](CCCCN)C(=O)N1CCC[C@@H]1C(=O)N[C@@H](CC(N)=O)C(=O)N[C@H](C(=O)N[C@@H](Cc1c[nH]cn1)C(=O)N[C@H](C(=O)N[C@@H](CC(=O)O)C(=O)N[C@@H]1CSSCC[C@@H](C(=O)N[C@@H](CCCNC(=N)N)C(=O)N[C@@H](CC(C)C)C(=O)NC(C)(C)C(=O)N[C@@H](C)C(=O)N[C@@H](CCCCN)C(=O)N[C@@H](CC(C)C)C(N)=O)NC(=O)[C@H](Cc2ccccc2)NC(=O)[C@H](Cc2ccc(O)cc2)NC1=O)C(C)(C)C)C(C)C` [JBT00002494, Ac-FQSKpNVH-Tle-D[cYF-Hcy-]RL-Aib-AKL-NH2] (Ac-FQSK[dP]NVH[Tle]D[dC]YF[hCys]RL[Aib]AKL-NH2; disulfide 11-14) came in with an IC50 of 2.84 nM.

“Ac-FQ-Ede(O)-KpNVH-Tle-DaYFERL-Aib-AKL-NH2 [JBT00002453]”: in test [2], the IC50 came out at 7.9 nM.

For “Ac-FQSKpNVH-Nmv-DGYFERL-Aib-AKLC(NEM)-NH2 [JBT00002387]”, in test [3], the IC50 is more than 500 nM.

Consider “Ac-FQSKpNVH-Tle-DaYFERL-Aib-A-Opc-L-NH2 [JBT00002447]”, for which, in test [4], the IC50 was more than 500 nM.

In turn, “Ac-FQSKpNVH-Tle-DaYF[-Hcy-RL-Aib--Hcy-]KL-NH2 [JBT00002489]” came in with an IC50 in test [5] of more than 500 nM.

With “Ac-FQSKpNVHVDGYFERL-Aib-AKLC(ME-400MA)-NH2 [JBT00002329]”, in test [6], the IC50 turned out to be 20.8 nM.

For “Ac-FQSKpNVHVDGYFERL-Aib-AKLK(AOA-40kDa PSA)- NH2 [JBT00002430]”, inhibition in test [7] was half-maximal at 15.4 nM (IC50).
